Activity calls are given as the source filed them.
Columns and labels:
[1] = non-specific 3'UTR reporter inhibition in Clone20-Shn3RL – cell-based, Renilla luciferase, cherry-picked, counter-screen for Shn3 inhibitor project, dose response (AID 624133); format: functional
[2] = target: T1, Short transient receptor potential channel 4 (Mus musculus, UniProt Q9QUQ5); test: block of DAMGO-driven TRPC4 calcium entry – cell-based, HEK293 TRPC4/mu-opioid, Fluo-4 calcium, dose response (AID 434942); format: functional;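 note: potency of inhibitors blocking the TRPC4 calcium response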
T1 sequence (Q9QUQ5 whole entry): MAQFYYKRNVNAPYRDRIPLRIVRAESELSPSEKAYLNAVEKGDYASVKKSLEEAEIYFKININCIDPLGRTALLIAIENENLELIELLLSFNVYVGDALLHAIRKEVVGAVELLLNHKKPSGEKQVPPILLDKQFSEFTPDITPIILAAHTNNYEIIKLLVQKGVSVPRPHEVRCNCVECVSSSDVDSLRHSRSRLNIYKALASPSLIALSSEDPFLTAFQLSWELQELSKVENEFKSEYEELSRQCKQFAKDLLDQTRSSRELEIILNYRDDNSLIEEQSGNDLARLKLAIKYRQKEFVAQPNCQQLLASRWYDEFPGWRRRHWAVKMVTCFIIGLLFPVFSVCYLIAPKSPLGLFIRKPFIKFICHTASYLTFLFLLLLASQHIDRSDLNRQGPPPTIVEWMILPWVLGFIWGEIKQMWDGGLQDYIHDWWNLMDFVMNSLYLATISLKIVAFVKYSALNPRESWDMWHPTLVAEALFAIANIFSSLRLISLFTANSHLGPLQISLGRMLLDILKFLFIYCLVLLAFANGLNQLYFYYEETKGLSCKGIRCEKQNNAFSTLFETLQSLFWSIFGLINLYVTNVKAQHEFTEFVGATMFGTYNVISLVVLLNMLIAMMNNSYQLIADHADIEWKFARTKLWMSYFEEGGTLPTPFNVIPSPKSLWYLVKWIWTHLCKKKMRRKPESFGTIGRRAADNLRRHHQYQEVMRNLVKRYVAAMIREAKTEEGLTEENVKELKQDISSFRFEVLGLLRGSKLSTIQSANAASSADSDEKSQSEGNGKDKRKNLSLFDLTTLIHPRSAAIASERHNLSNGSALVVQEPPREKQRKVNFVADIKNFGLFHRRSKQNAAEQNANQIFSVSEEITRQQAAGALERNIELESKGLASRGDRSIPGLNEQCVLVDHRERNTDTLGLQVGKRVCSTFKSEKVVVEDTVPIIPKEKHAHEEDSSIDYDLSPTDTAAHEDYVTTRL

[3] = reduction of Shn3 3'UTR-driven luciferase in osteoblasts – cell-based, Clone20 osteoblasts, firefly luciferase, cherry-picked, dose response (AID 624132); format: functional;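 note: firefly luciferase luminescence from reporter carrying the Shn3 3'UTR in osteoblasts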
Nonstructural protein 1 = Nonstructural protein 1 (Influenza A virus, UniProt Q194T2); format: functional, Influenza A virus (A/California/07/2009(H1N1))
[4] = target: Glucose-6-phosphate 1-dehydrogenase (Homo sapiens, UniProt P11413); test: inhibition of Homo sapiens G6PD, dose series – biochemical, fluorescence, selectivity assay for P. falciparum G6PD inhibitor project, dose response (AID 504792); format: functional
[5] = target: T2, Histone-lysine N-methyltransferase NSD2 (Homo sapiens, UniProt O96028); format: biochemical
T2 sequence (O96028 whole entry): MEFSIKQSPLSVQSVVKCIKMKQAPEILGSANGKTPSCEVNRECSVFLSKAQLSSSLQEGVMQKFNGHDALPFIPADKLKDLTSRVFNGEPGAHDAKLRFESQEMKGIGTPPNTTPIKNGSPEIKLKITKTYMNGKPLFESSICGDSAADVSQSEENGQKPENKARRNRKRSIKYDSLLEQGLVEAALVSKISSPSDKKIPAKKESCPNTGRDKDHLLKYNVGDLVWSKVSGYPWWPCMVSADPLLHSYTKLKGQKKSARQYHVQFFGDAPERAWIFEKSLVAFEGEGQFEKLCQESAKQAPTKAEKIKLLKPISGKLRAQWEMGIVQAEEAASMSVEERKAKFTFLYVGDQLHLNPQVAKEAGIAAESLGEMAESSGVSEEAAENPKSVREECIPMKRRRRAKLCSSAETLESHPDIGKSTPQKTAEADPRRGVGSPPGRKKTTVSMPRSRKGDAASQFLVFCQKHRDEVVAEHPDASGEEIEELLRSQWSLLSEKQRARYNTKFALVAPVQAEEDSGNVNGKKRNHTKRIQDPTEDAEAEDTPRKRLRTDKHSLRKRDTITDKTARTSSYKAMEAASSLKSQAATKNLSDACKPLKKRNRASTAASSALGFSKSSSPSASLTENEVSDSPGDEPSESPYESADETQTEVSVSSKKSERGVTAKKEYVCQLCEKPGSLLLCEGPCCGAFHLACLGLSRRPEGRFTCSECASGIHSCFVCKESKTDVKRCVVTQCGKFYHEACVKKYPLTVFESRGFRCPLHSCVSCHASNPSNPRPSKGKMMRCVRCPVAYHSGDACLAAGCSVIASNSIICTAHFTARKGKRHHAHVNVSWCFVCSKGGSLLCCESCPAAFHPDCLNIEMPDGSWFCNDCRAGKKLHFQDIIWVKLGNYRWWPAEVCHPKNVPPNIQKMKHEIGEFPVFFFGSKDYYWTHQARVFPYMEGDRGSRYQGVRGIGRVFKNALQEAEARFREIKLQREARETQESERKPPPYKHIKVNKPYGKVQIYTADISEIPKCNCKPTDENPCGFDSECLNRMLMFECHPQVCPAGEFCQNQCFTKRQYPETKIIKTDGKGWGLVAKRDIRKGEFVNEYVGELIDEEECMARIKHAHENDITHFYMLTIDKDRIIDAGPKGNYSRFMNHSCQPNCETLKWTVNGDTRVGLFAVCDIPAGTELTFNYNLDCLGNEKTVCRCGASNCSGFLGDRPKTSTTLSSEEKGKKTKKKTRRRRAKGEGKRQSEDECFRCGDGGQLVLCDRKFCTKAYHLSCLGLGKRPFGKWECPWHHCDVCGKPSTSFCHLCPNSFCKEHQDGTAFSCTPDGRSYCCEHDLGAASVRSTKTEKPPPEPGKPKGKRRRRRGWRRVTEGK

Cytochrome P450 2D6 = Cytochrome P450 2D6 (Homo sapiens, UniProt P10635);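 note: CYP2D6 member of a cytochrome P450 panel assay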
Cytochrome P450 2C19 = Cytochrome P450 2C19 (Homo sapiens, UniProt P33261); test: Cytochrome panel assay with activity outcomes. Panel member name: p450-cyp2c19 Compounds with AC50 equal or less than 10 uM are considered active; format: functional; conditions: read-out: AC50
[6] = Trypanosoma cruzi growth suppression in host cells – NIH3T3 host cells, beta-gal luminescence, confirmation (AID 2044); format: functional, cell-based;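 note: intracellular parasites grown in NIH/3T3 mouse fibroblasts as host cells; luminescent beta-galactosidase reporter signal from transgenic T. cruzi replicating inside host cells; inhibitors lower the luminescence signal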
[7] = NIH3T3 cell viability loss – ATP luminescence, mouse fibroblasts, counter-screen, dose response (AID 2010); format: functional, cell-based;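 note: cells exposed to compound for about 90 hours before reading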

Nonstructural protein 1, sequence (Q194T2 whole entry): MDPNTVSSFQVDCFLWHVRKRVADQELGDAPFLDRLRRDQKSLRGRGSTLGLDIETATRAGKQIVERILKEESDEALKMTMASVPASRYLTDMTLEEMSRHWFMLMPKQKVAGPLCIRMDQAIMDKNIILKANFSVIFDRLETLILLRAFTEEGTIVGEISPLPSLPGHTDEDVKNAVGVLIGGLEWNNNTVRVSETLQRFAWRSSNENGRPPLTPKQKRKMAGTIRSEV
Cytochrome P450 2C19, sequence (P33261 whole entry): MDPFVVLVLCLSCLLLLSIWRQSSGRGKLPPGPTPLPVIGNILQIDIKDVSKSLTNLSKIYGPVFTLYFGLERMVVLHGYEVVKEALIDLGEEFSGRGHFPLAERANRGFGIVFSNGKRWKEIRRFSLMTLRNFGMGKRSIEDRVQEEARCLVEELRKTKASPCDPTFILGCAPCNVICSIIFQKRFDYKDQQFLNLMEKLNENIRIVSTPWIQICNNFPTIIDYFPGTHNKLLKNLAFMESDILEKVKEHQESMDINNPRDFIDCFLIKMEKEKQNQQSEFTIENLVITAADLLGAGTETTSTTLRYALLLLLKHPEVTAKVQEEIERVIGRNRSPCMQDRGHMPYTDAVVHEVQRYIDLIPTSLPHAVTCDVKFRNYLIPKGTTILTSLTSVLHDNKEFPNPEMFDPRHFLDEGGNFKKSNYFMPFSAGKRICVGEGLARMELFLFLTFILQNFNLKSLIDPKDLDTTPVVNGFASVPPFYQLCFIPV
Glucose-6-phosphate 1-dehydrogenase, sequence (P11413 whole entry): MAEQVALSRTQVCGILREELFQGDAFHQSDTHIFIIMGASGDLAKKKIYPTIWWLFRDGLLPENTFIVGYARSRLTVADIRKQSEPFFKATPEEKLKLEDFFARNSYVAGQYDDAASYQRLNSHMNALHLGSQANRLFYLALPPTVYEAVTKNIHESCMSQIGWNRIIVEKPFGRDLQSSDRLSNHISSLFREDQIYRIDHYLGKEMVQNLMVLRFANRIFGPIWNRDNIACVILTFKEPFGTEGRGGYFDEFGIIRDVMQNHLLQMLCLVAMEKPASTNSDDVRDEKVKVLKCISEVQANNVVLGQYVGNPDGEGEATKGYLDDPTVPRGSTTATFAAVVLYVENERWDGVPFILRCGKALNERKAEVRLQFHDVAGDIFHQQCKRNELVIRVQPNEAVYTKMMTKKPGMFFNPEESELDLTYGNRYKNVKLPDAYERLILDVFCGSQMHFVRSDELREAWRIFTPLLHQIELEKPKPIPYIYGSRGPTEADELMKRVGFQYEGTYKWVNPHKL
Cytochrome P450 2D6, sequence (P10635 whole entry): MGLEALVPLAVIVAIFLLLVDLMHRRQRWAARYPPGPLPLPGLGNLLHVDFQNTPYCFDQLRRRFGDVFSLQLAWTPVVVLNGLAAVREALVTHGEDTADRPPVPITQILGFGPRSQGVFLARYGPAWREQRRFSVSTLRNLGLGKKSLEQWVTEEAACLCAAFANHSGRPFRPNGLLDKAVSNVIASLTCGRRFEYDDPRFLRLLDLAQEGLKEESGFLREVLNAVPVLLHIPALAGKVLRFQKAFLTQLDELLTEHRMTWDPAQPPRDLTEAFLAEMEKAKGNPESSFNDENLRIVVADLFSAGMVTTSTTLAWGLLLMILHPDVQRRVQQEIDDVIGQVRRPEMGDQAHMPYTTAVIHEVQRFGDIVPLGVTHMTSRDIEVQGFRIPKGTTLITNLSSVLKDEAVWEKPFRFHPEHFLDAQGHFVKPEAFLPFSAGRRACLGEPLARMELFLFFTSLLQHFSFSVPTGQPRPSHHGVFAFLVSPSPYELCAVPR

| SMILES | EC50 [2] | IC50 (Nonstructural protein 1) | also measured |
| --- | --- | --- | --- |
| O=C(CSc1nnc(-c2ccc(Cl)cc2Cl)n1C1CCCCC1)N1CCCC1 | 2.37 µM (active) |  | AC50 [1]: 23 µM (active); AC50 [3]: > 70 µM (inactive) |
| O=[N+]([O-])c1ccc(C[n+]2cccc3ccc4cccnc4c32)cc1 |  | 7.75 µM (active) |  |
| COc1cc(O)c(C(CCN2CCN(c3ccccc3)CC2)c2ccc(N(C)C)cc2)c(OC)c1 (stereo not drawn) |  | 18.2 µM (active) |  |
| COc1cc(CNc2ccc3[nH]c(O)nc3c2)ccc1OCc1ccccc1 |  |  | IC50 [4]: > 80 µM (inactive) |
| C=CCN1CCN(C(c2cccc(OC)c2OC)c2nnnn2CCC(C)C)CC1 (stereo not drawn) | 1.68 µM (active) |  |  |
| COc1ccccc1N1CCN(CCCNC(=O)Nc2ccccc2)CC1 | 1.88 µM (active) |  |  |
| CN(C)c1ccc(CN2CC=C(c3ccc(F)cc3)CC2)cc1 |  | 50.2 µM (active) | AC50 [5]: > 20 µM (inactive) |
| O=C(CSc1nnc(-c2ccc(Cl)cc2Cl)n1C1CCCCC1)NC1CCS(=O)(=O)C1 (stereo not drawn) | 1.68 µM (active) |  | AC50 (Cytochrome P450 2D6): 35.5 µM (inconclusive); AC50 (Cytochrome P450 2C19): 39.8 µM (inconclusive) |
| CN1c2ccccc2N(C)C1(C)c1cccc2ccccc12 |  | 39.3 µM (active) | EC50 [6]: 0.544 µM (active); EC50 [7]: > 30 µM (not active) |
| CCC(O)(c1ccc(OC)cc1)C(CN1CCOCC1)c1ccccc1 (stereo not drawn) | 5.96 µM (active) |  |  |
| Fc1ccccc1COc1ccc(Br)cc1CNCC1CCCO1 (stereo not drawn) | 0.944 µM (active) |  |  |

From ChEMBL document CHEMBL1201862, “PubChem BioAssay data set” (2004)
